The text below walks through data of patent US20120003270A1, “6-SUBSTITUTED ISOFLAVONOID COMPOUNDS AND USES THEREOF” (priority 2008, published 2012).

Marks after values point to notes of the source that are not given here.

One series relates to iNOS. The series can be described thus: NO synthesis in LPS-stimulated RAW 264.7 (Griess). Format: cell-based, mouse. The note with it: LPS 50 ng/ml, 16 hrs. Here is the method:
The mouse macrophage cell line RAW 264.7 was cultured in DMEM supplemented with foetal calf serum (FCS), 2 mM glutamine and 50 U/ml penicillin/streptomycin. Cells were treated with either the compounds of the formula (I) (in 0.025% DMSO) or vehicle alone, and added one hour before 50 ng/ml LPS, which induces iNOS and the production of NO. After incubation for 16 hrs, culture media was collected. Nitrite concentration is a quantitative indicator of NO production and was determined by the Griess Reaction. Briefly, 100 μL of Griess reagent was added to 50 μL of each supernatant in duplicate. The absorbance at 550 nm was measured (Molecular Devices, SpectraMax 250 microplate spectrophotometer, CA, USA), and nitrite concentrations were determined against a standard curve of sodium nitrite.
For orientation: The Griess reaction detects nitrite, a stable product of nitric oxide.

Another series deals with rabbit kidney (RK-13). The series can be described thus: Toxicity in normal cells (MTT), RK-13. Format: cell-based. The note with it: Oryctolagus cuniculus, RK-13, 120 h, 5 days, top concentration 150 μM, read-out: Normal cell viability IC50. On the procedure: Human neonatal fibroblast foreskin (NFF—a gift from Dr. Peter Parsons, Queensland Institute of Medical Research) or rabbit kidney (RK-13—a gift from Prof. Miller Whalley, Macquarie University) cells were seeded into 96 well plates and cultured in RPMI supplemented with 10% FCS (CSL, Australia), penicillin (100 U/ml), streptomycin ([…]), L-glutamine (2 mM) and sodium bicarbonate (1.2 g/L) at 37° C. and 5% CO2 for 24 hours until cells had attached and entered log phase of growth. Test compounds were added in serial two-fold dilutions from 150 μM in triplicate and incubated for a further 5 days. MTT was then added to each well, incubated for 3 hours at 37° C., after which the medium was tipped off. Following the addition of DMSO, the absorbance for each well was read on a plate reader. The assays were repeated at least twice.

Series [1] can be described thus: Free radical scavenging (DPPH). The note with it: DPPH 0.1 mM, 20 minutes, 517 nm; read-out: Free radical scavenging ability EC50. The format is biochemical. Here is the method: The antioxidant (free radical trapping) activity of test compounds was assessed using the stable free radical compound 2,2-diphenyl-1-picrylhydrazyl (DPPH). A stock solution of DPPH was prepared at a concentration of 0.1 mM in ethanol and mixed for 10 minutes prior to use. Compound (1) was reacted with DPPH for 20 minutes, after which time the absorbance at 517 nm was determined. The change in absorbance at 517 nm was compared to a reagent blank (DPPH with ethanol alone). The IC50 value was estimated as the concentration of the test compound that caused a 0.6 change in absorbance (with 1.2 absorbance units representing total scavenging of the DPPH radical).
Background: DPPH is a stable violet radical that fades when it is reduced.

A further series deals with HCAECs. The series can be described thus: HCAEC cell viability. Format: cell-based, human. The note with it: 10 μM, 24 hr incubation.
Series [2] is described as follows: Pharmacokinetics after a single oral dose in mice. Format: in vivo, mouse. The note with it: serum; for half-life / AUC: mouse; for half-life: oral, 25 mg/kg, unconjugated, one phase exponential decay, read-out: t1/2 (free); for AUC: oral 25 mg/kg in PEG 400/PBS 1:1; for AUCfree/AUCtotal / [max]free (μM, mean ± SD): oral 25 mg/kg. Here is the method:
The pharmacokinetic (PK) profiles of compounds (1) and (3) were examined following oral administration in PEG 400/PBS 1:1 at a dose of 25 mg/kg. For each experiment, three animals were allocated per time point (15 min, 30 min, 60 min, 90 min, 4 hr and 24 hr). Mice were killed using cervical dislocation and serum collected via cardiac puncture. Faeces and urine, where available, were also collected. Samples were stored at −80° C. and analysed by LC-MS in-house. The limit of detection was 20 ng/ml.
In Table 23 (and Table 24), “AUC” represents the area under the serum concentration versus time curve, expressed as μM*hour/L. This number assesses absorption and clearance in a relative way. The higher the number, the more compound has been absorbed and the longer it has remained in circulation. “AUCfree” refers to the area under the curve for unconjugated or free analogue, whereas “AUCtotal” refers to the area under the curve for the free and conjugated analogue combined.
“[max]” refers to the maximum concentration observed in serum. These measurements also give some understanding of how well a compound is absorbed.
The ratio of the AUCfree to the AUCtotal gives a relative measure of how much of the administered compound i.e. ‘free’ remains either in circulation compared to how much of the compound is conjugated.
“t1/2” is the half life, i.e. the time taken for the serum concentration to fall by half. The elimination of a drug is usually an exponential (logarithmic) process, so that a constant proportion is eliminated per unit time. […] The first refers to the t1/2 of the unconjugated analogue and the second the t1/2 of the total (free plus conjugated) analogue.

Series [3] concerns serum-treated zymozan air pouch inflammation. The series can be described thus: Rat air pouch assay. As to conditions: for Cells in lavage fluid (×10^−7): intrapouch, mean ± SD; for Cells in lavage fluid (×10^−7) / PMN in tissue sections (per 100 squares): 4 h after STZ; for PMN in tissue sections (per 100 squares): pouch wall. The format is in vivo. On the procedure: Air pouches were raised on the dorsum of female Dark Agouti rats, approximately seven weeks of age. To promote the formation of a cellular membrane lining the inside of each pouch, the pouches were maintained by re-inflating on days 2 and 5 after the initial injection of air. On re-inflation, the pouch was first deflated to ensure the needle was positioned correctly, before being re-inflated with 2 mL of sterile air. Using this protocol, the pouches remained inflated until use on day 7, when they were injected with 0.5 ml of either test compound or vehicle control. After 15 min, air pouches were injected with serum-treated zymozan (STZ—500 μg). Lavage of the air pouch (4×2 ml lavages) was performed at 4 h and leucocytes counted, after which the rats were killed, the air pouch excised and processed in formalin for histology. The sections were blinded to the person counting. Using a graticule with 100 squares and the 40× objective, the number of polymorphs (PMN) was counted in the pouch lining at 10 different and non-adjacent sites. Group sizes were 5-6 rats. Data were analysed for statistical significance within each experiment and using an unpaired t test. Compounds (1) and (3) were examined in this assay.

The nature of series [4]: Interaction with Cu(II) (UV/Vis absorption spectra). As to conditions: 25 μM compound + 25 μM CuSO4, 1:1 molar ratio, pH 7.2. The format is physicochemical. Here is the method: The non-specific binding of compound (1) to Cu^++ was also examined in duplicate on different days. A stock solution of test compounds was prepared in DMSO at a concentration of 5 mM. The UV/Vis absorption spectra of was then determined between 200 and 800 nm after dilution of test compounds to 25 μM in phosphate buffer (10 mM, pH 7.2, chelex treated). Interactions of the compounds with Cu(II) were determined by scanning a second overlaying absorption spectrum over 200 to 800 nm, in which 25 μM CuSO4 solution was added to a fresh 25 μM solution of test compounds and mixed for 20 seconds.

The test system of a further series is RAW 264.7. The series can be described thus: Toxicity in RAW 264.7. Format: cell-based, mouse.
Where [5] appears, read: treated rats compared with controls.

In the case of `O=C(O)C1CCCN1Cc1cc2c(cc1O)OCC(c1ccc(O)cc1)=C2` (stereo not shown) [Compound (3)], the melting point is 240 °C (dec.). The “NO” value with iNOS (1 μM) is 31.33 ± 0.16 µM. In the series on iNOS (10 μM), the “NO” value is 21.79 ± 0.82 µM. Besides, in the series on rabbit kidney (RK-13), the 50% inhibitory concentration (IC50) was greater than 150 µM. In addition, in series [1], the EC50 was determined as 13.6 µM. In the series on HCAECs, the Cell viability result is “cell viability was unaffected”. In series [2], the half-life was determined as 28 min; the AUC was 0.108 µM·h; the AUCfree/AUCtotal was 12%; the “[max]free (μM, mean ± SD)” value was determined as 0.03 ± 0.01 µM. In series [3], the “Cells in lavage fluid (×10^−7)” value is on record as 1.73 ± 0.84 ×10^−7 and the “PMN in tissue sections (per 100 squares)” value is reported as 35.85 ± 12.89 per 100 squares.

For `CN(C)Cc1cc2c(cc1O)OCC(c1ccc(O)cc1)=C2` [Compound (1)], the “NO (μM)” value with iNOS (1 μM) is reported as 17.27 ± 0^ μM. Moreover, the “NO” value in the series with iNOS (10 μM) came to 5.29 ± 0.15 µM. Besides, in the series with rabbit kidney (RK-13), the half-maximal inhibitory concentration (IC50) is greater than 150 µM. In [1], the EC50 came out at 18.8 µM. Moreover, the Cell viability entry in the series on HCAECs is “cell viability was unaffected”. In series [4], the “Interaction with Cu^2+” value is “did not interact with Cu^2+”. In [2], the half-life was 9 min; the AUC is 0.127 µM·h; the AUCfree/AUCtotal is reported as 33%; the “[max]free (μM, mean ± SD)” value was 0.13 ± 0.1 µM. In the series with RAW 264.7, the “Effect on the viability of RAW 264.7 cells” value is on record as “little effect on the viability”. For the same molecule, the 50% inhibitory concentration (IC50) with RAW 264.7 (Mus musculus, RAW264.7) came out at 53.9 ± 1.2 µM. Moreover, in series [3], the “Cells in lavage fluid (×10^−7)” value is listed as 0.43 ± 0.21^b ×10^−7 and the “PMN in tissue sections (per 100 squares)” value is 13.03 ± 7.10 per 100 squares. Further, in series [3] (setting [5]), the “Number of extravasated PMN in the pouch wall, fold less than controls” value was “more than 3 fold” and the “Number of exudate cells in the pouch cavity, fold less than controls” value is listed as “more than 3 fold”.

The IC50 is the point on the concentration scale where inhibition reaches its midpoint. For orientation: EC50 means the concentration needed to bring the measured effect to its halfway point. For orientation: AUC means concentration integrated over time. By melting point is commonly meant the temperature of the solid-liquid transition.
